Experimental data published in US20190070128A1, “USE OF CANNABIDIVARIN IN THE TREATMENT OF AUTISM SPECTRUM DISORDER, ASSOCIATED DISORDERS AND SCHIZOPHRENIA” (GW Research Limited, priority 2016, published 2019).

What was measured:
[1] = system: PCP-treated rats; experiment: social interaction test in sub-chronic PCP treated rats; assay type: in vivo, rat
Procedure: (§1) Female hooded-Lister rats were used for this experiment. Rats were housed in groups of 5 under standard laboratory conditions under a 12 hr light: dark cycle, lights on at 0700 hr. Testing was carried out in the light phase.
(§2) Rats were randomly assigned to two treatment groups and treated with vehicle, n=20 (distilled water, i.p.) or Phencyclidine hydrochloride (PCP), n=100 (2 mg/kg, i.p. twice daily for 7-days). PCP was dissolved in distilled water. This was followed by a 7-day wash out period before the rats were tested following acute treatment with CBDV, risperidone or vehicle.
(§3) Risperidone (0.1 mg/kg) was dissolved in a minimum volume of acetic acid, made up to volume with distilled water and pH adjusted to 6 with 0.1M NaOH and administered via the i.p. route in a volume of 1 ml/kg, 60 min prior to testing.
(§4) CBDV at 2, 10 or 20 mg/kg was dissolved in 2:1:17 (Ethanol:Cremofor:Saline 0.9%) and administered via the i.p. route in a volume of 5 ml/kg, 60 min prior to testing.
The social interaction test is performed in an open-field comprising a square box made of Plexiglas (52×52×31 cm) placed 27 cm above the floor on a moveable trolley. The floor of the box is white with black gridlines forming 9 identical squares on it. All other walls are black. A video camera connected to a video recorder and monitor is positioned above the box. The object used for the test consists of a heavy structure made of metal that cannot be displaced by the animals.
The rats were habituated to the test environment and arena prior to the test day. Habituation consists of placing all rats from one cage together in the empty test arena for one hour for three days including the day before the test day.
Pairs of rats, weight matched (15-20 g) and unfamiliar to each other, receiving either no treatment (n=70 “conspecific” rats) or different treatments (PCP and Vehicle; n=10 “tested” rats or PCP+Drug; n=50 “tested” rats) were placed in the test arena together for 10 min and behaviour assessed as described below.
An inanimate object such as an unopened drinks can is also placed in the centre of the arena to measure any differences in interaction of the test animal with an unfamiliar animal as opposed to an unfamiliar object. After each 10 minute trial, the object and arena are cleaned with 10% alcohol in an attempt to remove traces of any olfactory cues. All testing is carried out under standard room illumination levels (70 cd/m2).
Behaviour in both trials was recorded on video for subsequent blind scoring. A behavioural scoring software program (Hindsight, Scientific programming services) is used to score the following parameters: • Investigative sniffing behaviour: sniffing the conspecific's snout or parts of the body including the anogenital region; • Following: rat moves after the conspecific i.e. a vehicle treated rat of the same species, around the arena; • Avoidances: actively turning away when approached by the conspecific animal; • Investigation of object: exploration of object placed in centre of the arena; and • Locomotor activity is recorded by counting the total number of sectors (i.e. lines) crossed by the test rat.

[2] = system: PCP-treated rats; conditions: rat, in vivo; cited from earlier work
[3] = system: PCP-treated rats; experiment: novel object recognition test in sub-chronic PCP treated rats; assay type: in vivo, rat; conditions: PCP rats; CBDV 2, 10 or 20 mg/kg i.p., risperidone 0.1 mg/kg i.p., 60 min prior to testing
Procedure: as §1, §2, §3, §4
Rats were allowed to habituate to the empty test box and the behavioural test room environment for 1 h on day 1. Prior to behavioural testing on day 2 rats are given a further 3 min habituation.
Following the 3 min habituation period, the rats are given two 3 min trials (T1 and T2) which are separated by a 1 min inter-trial interval in the home cage during which the objects are changed. Behaviour in all trials was recorded on video for subsequent blind scoring.
In this trial, the animals are allowed to explore two identical objects (A1 and A2) for 3 min.
In this trial, the animals explore a familiar object (A) from T1 and a novel object (B) for 3 min. The familiar object presented during T2 is a duplicate of the object presented in T1 in order to avoid any olfactory trails.
The object exploration is defined by animals licking, sniffing or touching the object with the forepaws whilst sniffing, but not leaning against, turning around, standing or sitting on the object. The exploration time (s) of each object (A, B, familiar and novel) in each trial are recorded using two stopwatches and the following factors are calculated: • Total exploration time of both objects in the acquisition trial (s). • Total exploration time of both objects in the retention trial (s). • Habituation of exploratory activity includes the exploration time, as measured by the number of lines crossed, for both the trials. • Discrimination index (DI), which is calculated as shown below: […]

## Cc1nc2n(c(=O)c1CCN1CCC(c3noc4cc(F)ccc34)CC1)CCCC2 [risperidone, reference compound]
[1]
  PCP effects on social interaction (sniffing, following, avoiding): reverse these effects in a statistically significant manner
[1]; risperidone 0.1 mg/kg, time increased over PCP alone group
  time spent following the other rat: not seen to be significant
[2]
  PCP-induced deficit in the novel object recognition test: attenuate
[3]
  preference between two identical objects, Trial 1 (acquisition): no real preference
